Results reported in US9284333B2, “Fused pyrroledicarboxamides and their use as pharmaceuticals” (SANOFI, priority 2012, dated 2016).

Each compound was assayed against Human TASK-1 channels (Homo sapiens (Human), UniProt O14649) (assay: Determination of the activity on the TASK-1 channel in Xenopus oocytes (two-microelectrode voltage clamp)). Conditions: human TASK-1 expressed in Xenopus oocytes, room temperature; read-out: IC50 value for TASK-1 inhibition.
Assay type: cell-based
Method in brief: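 Current during 500 ms pulses to 40 mV from a −90 mV hold was recorded in oocytes expressing human TASK-1 for two days after cRNA injection. Compounds were added cumulatively to the ND96 bath (pH 7.4, room temperature). IC50 came from dose-response fitting of inhibition relative to pre-compound current.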

Chain of Human TASK-1 channels (O14649 whole entry): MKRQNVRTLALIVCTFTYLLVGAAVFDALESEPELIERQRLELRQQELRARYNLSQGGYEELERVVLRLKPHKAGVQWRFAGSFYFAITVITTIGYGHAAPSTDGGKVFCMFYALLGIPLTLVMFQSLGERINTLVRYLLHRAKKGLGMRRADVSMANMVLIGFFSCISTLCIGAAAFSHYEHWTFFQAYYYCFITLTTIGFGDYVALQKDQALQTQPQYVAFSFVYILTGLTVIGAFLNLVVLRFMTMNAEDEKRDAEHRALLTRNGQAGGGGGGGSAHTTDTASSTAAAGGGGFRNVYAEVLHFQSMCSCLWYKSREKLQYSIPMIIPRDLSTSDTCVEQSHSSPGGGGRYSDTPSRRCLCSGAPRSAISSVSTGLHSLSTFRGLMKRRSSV

| Compound | IC50 |
| --- | --- |
| CC[C@@H](NC(=O)c1cc(C(=O)N2CCC[C@@H]2C)n2c1COCC2)c1ccc(Cl)c(Cl)c1 [16ci, 6-((S)-Methyl-pyrrolidine-1-carbonyl)-3,4-dihydro-1H-pyrrolo[2,1-c][1,4]oxazine-8-carboxylic acid [(R)-1-(3,4-dichloro-phenyl)-propyl]-amide] | 30 nM |
| CC[C@@H](NC(=O)c1cc(C(=O)N2CCC[C@@H]2C#N)n2c1COCC2)c1ccccc1 [16fm, 6-((R)-2-Cyano-pyrrolidine-1-carbonyl)-3,4-dihydro-1H-pyrrolo[2,1-c][1,4]oxazine-8-carboxylic acid ((R)-1-phenyl-propyl)-amide] | 210 nM |
| CC[C@@H](NC(=O)c1cc(C(=O)N(C)Cc2ncccn2)n2c1COCC2)c1ccccc1 [16jc, 3,4-Dihydro-1H-pyrrolo[2,1-c][1,4]oxazine-6,8-dicarboxylic acid 6-(methyl-pyrimidin-2-ylmethyl-amide) 8-[((R)-1-phenyl-propyl)-amide]] | 2700 nM |
| 5,6,7,8-Tetrahydro-indolizine-1,3-dicarboxylic acid 3-[(5-fluoro-pyridin-3-ylmethyl)-amide] 1-[((R)-1-phenyl-propyl)-amide] [16nb] | 460 nM |
| CC[C@@H](NC(=O)c1cc(C(=O)NC(C2CC2)C2CC2)n2c1COCC2)c1ccc(C(F)(F)F)nc1 [16pa, 3,4-Dihydro-1H-pyrrolo[2,1-c][1,4]oxazine-6,8-dicarboxylic acid 6-dicyclopropylmethyl-amide 8-{[(R)-1-(6-trifluoromethyl-pyridin-3-yl)-propyl]-amide}] | 1500 nM |
| CC[C@@H](NC(=O)c1cc(C(=O)N[C@@H](C)C(=O)OC(C)C)n2c1COCC2)c1ccccc1 [16it, (S)-2-{[8-((R)-1-Phenyl-propylcarbamoyl)-3,4-dihydro-1H-pyrrolo[2,1-c][1,4]oxazine-6-carbonyl]-amino}-propionic acid isopropyl ester] | 130 nM |
| CC[C@@H](NC(=O)c1cc(C(=O)NC(C)c2cnc(OC)cn2)n2c1COCC2)c1ccccc1 (stereo partly drawn) [16iv, 3,4-Dihydro-1H-pyrrolo[2,1-c][1,4]oxazine-6,8-dicarboxylic acid 6-{[1-(5-methoxy-pyrazin-2-yl)-ethyl]-amide} 8-[((R)-1-phenyl-propyl)-amide]] | 120 nM |
| CC[C@@H](NC(=O)c1cc(C(=O)N[C@H](C)c2ccc(F)cc2)c2n1CCOC2)c1ncccn1 [16nv, 3,4-Dihydro-1H-pyrrolo[2,1-c][1,4]oxazine-6,8-dicarboxylic acid 8-{[(R)-1-(4-fluoro-phenyl)-ethyl]-amide} 6-[((R)-1-pyrimidin-2-yl-propyl)-amide]] | 170 nM |

The remaining lines, values ahead:

| IC50 | Compound |
| --- | --- |
| 240 nM | CC[C@@H](NC(=O)c1cc(C(=O)N2CCC[C@@H]2C)n2c1COCC2)c1ccc(C#N)c(Cl)c1 [16d, 6-((S)-2-Methyl-pyrrolidine-1-carbonyl)-3,4-dihydro-1H-pyrrolo[2,1-c][1,4]oxazine-8-carboxylic acid [(R)-1-(3-chloro-4-cyano-phenyl)-propyl]-amide] |
| 490 nM | CC[C@@H](NC(=O)c1cc(C(=O)N(C)CC2CC2)n2c1COCC2)c1ccccc1 [16he, 3,4-Dihydro-1H-pyrrolo[2,1-c][1,4]oxazine-6,8-dicarboxylic acid 6-(cyclopropylmethyl-methyl-amide) 8-[((R)-1-phenyl-propyl)-amide]] |
| 1100 nM | CC[C@@H](NC(=O)c1cc(C(=O)NC(C)c2cccc(S(=O)(=O)N(C)C)c2)n2c1COCC2)c1ccccc1 (stereo partly drawn) [16rj, 3,4-Dihydro-1H-pyrrolo[2,1-c][1,4]oxazine-6,8-dicarboxylic acid 6-{[1-(3-dimethylsulfamoyl-phenyl)-ethyl]-amide} 8-[((R)-1-phenyl-propyl)-amide]] |
| 13 nM | CC[C@H](NC(=O)c1cc(C(=O)N[C@H](CC)c2ccccc2)c2n1CCCC2)c1ccccc1 [16mb, 5,6,7,8-Tetrahydro-indolizine-1,3-dicarboxylic acid 3-[((S)-1-phenyl-propyl)-amide] 1-[((R)-1-phenyl-propyl)-amide]] |
